# From patent publication US20250368645A1, “BETA CARBOLINE ANALOGUES AS SELECTIVE AND BIASED KAPPA OPIOID RECEPTORS AGONISTS FOR TREATING VARIOUS ASSOCIATED PATHOPHYSIOLOGICAL CONDITIONS” (COUNCIL OF SCIENTIFIC AND INDUSTRIAL RESEARCH, priority 2022, published 2025)
# Read-outs that look alike come from different tables or passages of the source.
# Assays:
# [1] = molecular target: DOR (Homo sapiens, UniProt P41143); assay: GloSensor assay at DOR; type: cell-based; conditions: given as Log IC50 (negative values)
# DOR, sequence (P41143 whole entry): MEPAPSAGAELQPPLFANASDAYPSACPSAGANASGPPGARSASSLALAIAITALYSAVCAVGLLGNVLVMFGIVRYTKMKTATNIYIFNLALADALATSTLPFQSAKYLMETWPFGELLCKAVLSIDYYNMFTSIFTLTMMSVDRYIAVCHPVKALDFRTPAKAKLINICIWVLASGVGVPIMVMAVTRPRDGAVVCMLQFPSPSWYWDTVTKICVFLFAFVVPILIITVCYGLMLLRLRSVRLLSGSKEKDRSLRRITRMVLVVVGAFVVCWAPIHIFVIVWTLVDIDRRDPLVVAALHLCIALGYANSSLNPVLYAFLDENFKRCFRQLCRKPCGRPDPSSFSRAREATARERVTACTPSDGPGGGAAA
# [2] = molecular target: MOR (Homo sapiens, UniProt P35372); assay: GloSensor assay at MOR; type: cell-based; conditions: given as Log IC50 (negative values)
# MOR, sequence (P35372 whole entry): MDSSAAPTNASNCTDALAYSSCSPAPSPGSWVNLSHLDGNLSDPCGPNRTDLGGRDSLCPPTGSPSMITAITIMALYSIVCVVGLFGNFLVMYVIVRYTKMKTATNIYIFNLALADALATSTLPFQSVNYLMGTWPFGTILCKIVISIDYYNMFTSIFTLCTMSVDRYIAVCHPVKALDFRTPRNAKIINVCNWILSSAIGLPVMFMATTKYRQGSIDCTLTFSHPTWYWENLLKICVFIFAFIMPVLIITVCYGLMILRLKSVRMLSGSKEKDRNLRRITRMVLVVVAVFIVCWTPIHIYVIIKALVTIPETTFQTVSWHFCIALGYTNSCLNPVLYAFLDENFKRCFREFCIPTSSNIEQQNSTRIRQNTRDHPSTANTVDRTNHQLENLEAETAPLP
# [3] = molecular target: T1, human KOR (Homo sapiens, UniProt P41145); assay: GloSensor assay, Gi-mediated cAMP inhibition in HEK-293T cells transfected with human KOR; type: cell-based; conditions: for G-Protein Bias factor (IC50 -Glosensor/- EC50 - Tango): KOR, GloSensor versus Tango;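 as to agonist at KOR (pIC50): value taken from a statement in the text not a table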
# Target sequence in this assay (P41145 whole entry): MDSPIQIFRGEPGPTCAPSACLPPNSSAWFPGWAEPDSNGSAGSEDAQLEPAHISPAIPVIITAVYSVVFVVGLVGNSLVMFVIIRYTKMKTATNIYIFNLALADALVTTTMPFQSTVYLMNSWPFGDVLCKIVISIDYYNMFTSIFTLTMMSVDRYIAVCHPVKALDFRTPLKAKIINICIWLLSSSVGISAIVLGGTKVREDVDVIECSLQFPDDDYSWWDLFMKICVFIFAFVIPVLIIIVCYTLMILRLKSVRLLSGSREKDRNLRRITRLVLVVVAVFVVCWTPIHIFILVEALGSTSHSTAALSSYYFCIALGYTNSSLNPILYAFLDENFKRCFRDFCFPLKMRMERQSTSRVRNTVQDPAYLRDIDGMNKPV
# [4] = molecular target: T1, human KOR; assay: β-arrestin2 Tango assay in HTLA cells transiently transfected with human KOR; type: cell-based; conditions: Table 2, KOR; for EC50: read-out: B-arrestin Tango Assay (pEC50) (converted)
# Target sequence in this assay (P41145 whole entry, added parts left off): as the sequence (P41145 whole entry) above
# [5] = tested on: SD rats; assay: Neuropathic pain induced by chronic constriction injury (CCI) of sciatic nerve; type: in vivo, rat
# [6] = tested on: C57Bl/6 mice; assay: Tail flick assay for analgesia; type: in vivo
# [7] = tested on: C57Bl/6 mice; assay: Hargreaves assay for thermal analgesia after intracerebroventricular administration; type: in vivo; conditions: 10 nmol
# [8] = tested on: paclitaxel (PTX)-treated mice; assay: Paclitaxel-induced peripheral neuropathy model; type: in vivo; conditions: for mechanical pain (mechanical hyperalgesia, Von frey hair test), chronic administration / thermal hyperalgesia (Hargreaves test), chronic administration: 8abd 5 and 10 mg/kg p.o., duloxetine 10 mg/kg, 16 days
# [9] = Table 2, KOR, read-out: GloSensor Assay (pIC50) (converted)
# [10] = given as Log IC50 (negative values), agonist activity, inhibition of FSK-stimulated cAMP, read-out: GloSensor Assay (Log IC50) KOR (converted)
# [11] = read-out: agonist at KOR (pIC50) (converted)
# [12] = 8abd 10 mg/kg/day p.o., U50488 5 mg/kg/day i.p., 7 days, tested 16 hours after drug administration
Compound,IC50 [1] [nM],IC50 [2] [nM],G-Protein Bias factor (IC50 -Glosensor/- EC50 - Tango) [3],"IC50 [3, 9] [nM]","IC50 [3, 10] [nM]","IC50 [3, 11] [nM]",EC50 [4] [nM],further results
"Cc1ccc(-c2c3c4[nH]c5ccccc5c4cc[n+]3cn2-c2ccc(F)cc2)cc1.[Cl-] [8akd, 2-(4-Fluorophenyl)-1-(p-tolyl)-2,11-dihydroimidazo[1′,5′:1,2]pyrido[3,4-b]indol-4-ium chloride]",> 10000,> 10000,3.15,0.641,1.58,< 31.6,916,–
"Fc1ccc(-n2c[n+]3ccc4c5ccccc5[nH]c4c3c2-c2ccc(Cl)cc2)cc1.[Cl-] [8add, 1-(4-Chlorophenyl)-2-(4-fluorophenyl)-2,11-dihydroimidazo[1′,5′:1,2]pyrido[3,4-b]indol-4-ium chloride]",> 10000,> 10000,2.67,2.94,3.98,< 31.6,1380,–
"Fc1ccc(-n2c[n+]3ccc4c5ccccc5[nH]c4c3c2-c2ccccc2Cl)cc1.[Cl-] [8aed, 1-(2-Chlorophenyl)-2-(4-fluorophenyl)-2,11-dihydroimidazo[1′,5′:1,2]pyrido[3,4-b]indol-4-ium chloride]",> 10000,> 10000,1.06,10,10,< 31.6,115,–
"Fc1ccc(-n2c[n+]3ccc4c5ccccc5[nH]c4c3c2-c2ccccc2Br)cc1.[Cl-] [8acd, 1-(2-Bromophenyl)-2-(4-fluorophenyl)-2,11-dihydroimidazo[1′,5′:1,2]pyrido[3,4-b]indol-4-ium chloride]",> 10000,> 10000,3,1.58,1.58,< 31.6,1580,–
"Clc1ccc(-n2c[n+]3ccc4c5ccccc5[nH]c4c3c2-c2ccc(Br)cc2)cc1.[Cl-] [8abc, 1-(4-Bromophenyl)-2-(4-chlorophenyl)-2,11-dihydromidazo[1′,5′:1,2]pyrido[3,4-b]indol-4-ium chloride]",> 10000,> 10000,2.35,1.12,0.631,< 31.6,251,–
"Clc1ccc(-n2c[n+]3ccc4c5ccccc5[nH]c4c3c2-c2ccccc2Cl)cc1.[Cl-] [8aec, 1-(2-Chlorophenyl)-2-(4-chlorophenyl)-2,11-dihydroimidazo[1′,5′:1,2]pyrido[3,4-b]indol-4-ium chloride]",> 10000,501,1.23,7.94,7.94,< 31.6,135,–
"Clc1ccc(-n2c[n+]3ccc4c5ccccc5[nH]c4c3c2-c2ccccc2Br)cc1.[Cl-] [8acc, 1-(2-Bromophenyl)-2-(4-chlorophenyl)-2,11-dihydrolmidazo[1′,5′:1,2]pyrido[3,4-b]indol-4-ium]",3980,2000,2.89,0.589,1.58,< 31.6,457,–
"2-(4-Fluorophenyl)-1-(4-methoxyphenyl)-2,11-dihydroimidazo[1′,5′:1,2]pyrido[3,4-b]indol-4-ium [8aod]",–,–,1.68,–,–,–,–,"GloSensor Assay (Log IC50) DOR [1]: >−5; GloSensor Assay (Log IC50) MOR [2]: >−5; GloSensor Assay (pIC50) ([3]; Table 2, KOR): 7.9; GloSensor Assay (Log IC50) KOR ([3]; given as Log IC50 (negative values), agonist activity, inhibition of FSK-stimulated cAMP): −7.9; B-arrestin Tango Assay (pEC50) [4]: 6.22"
"Fc1ccc(-n2c[n+]3ccc4c5ccccc5[nH]c4c3c2-c2ccc(Br)cc2)cc1.[Cl-] [8abd, 1-(4-Bromophenyl)-2-(4-fluorophenyl)-2,11-dihydrolmidazo[1′,5′:1,2]pyrido[3,4-b]indol-4-ium chloride]",> 10000,> 10000,2.33,1.05,5.01,< 31.6,224,"CCI-induced thermal hyperalgesia, acute administration ([5]; 8abd 10 mg/kg p.o., U50488 5 mg/kg i.p., Hargreaves): robustly inhibited; CCI-induced mechanical pain, acute administration ([5]; 8abd 10 mg/kg p.o., U50488 5 mg/kg i.p., von frey): robustly inhibited; CCI-induced mechanical pain, sub-chronic administration [5, 12]: significantly blocked; CCI-induced thermal hyperalgesia, sub-chronic administration [5, 12]: significantly blocked; tail flick latency time ([6]; 10 mg/kg or 5 mg/kg p.o., in comparison to vehicle treated mice): significantly increased; duration of the analgesic effect ([6]; 8abd 5 and 10 mg/kg p.o., U50488 5 mg/kg i.p.): comparable to U50488; analgesic effect in presence of selective KOR antagonist Norbinaltrophamine (NBN) ([6]; NBN 5 mg/kg i.p. (legend: 10 mg/kg i.p.)): completely blocked; analgesic activity (paw withdrawal latency) [7]: exhibited analgesic activity; mechanical pain (mechanical hyperalgesia, Von frey hair test), chronic administration [8]: significantly improved; thermal hyperalgesia (Hargreaves test), chronic administration [8]: significantly improved; improvement in both pain behaviors relative to duloxetine ([8]; chronic administration): better improvement in both pain behaviors as compared to duloxetine"
"Brc1ccc(-n2c[n+]3ccc4c5ccccc5[nH]c4c3c2-c2ccccc2Br)cc1.[Cl-] [8acb, 1-(2-Bromophenyl)-2-(4-bromophenyl)-2,11-dihydroimidazo[1′,5′:1,2]pyrido[3,4-b]indol-4-ium chloride]",> 10000,> 10000,3.6,0.115,2.51,< 31.6,457,–
"Clc1ccc(-c2c3c4[nH]c5ccccc5c4cc[n+]3cn2-c2ccc(Cl)cc2)cc1.[Cl-] [8adc, 1,2-Bis(4-chlorophenyl)-2,11-dihydrolmidazo[1′,5′:1,2]pyrido[3,4-b]indol-4-ium chloride]",> 10000,> 10000,3.28,0.501,1.58,< 31.6,955,–
"Brc1ccc(-c2c3c4[nH]c5ccccc5c4cc[n+]3cn2-c2cccc(Br)c2)cc1.[Cl-] [8abe, 2-(3-Bromophenyl)-1-(4-bromophenyl)-2,11-dihydroimidazo[1′,5′:1,2]pyrido[3,4-b]indol-4-ium chloride]",> 10000,> 10000,1.72,12.9,1.26,< 31.6,676,–
"CNCC[C@H](Oc1cccc2ccccc12)c1cccs1 [duloxetine, reference compound]",–,–,–,–,–,–,–,"mechanical pain (mechanical hyperalgesia, Von frey hair test), chronic administration [8]: significantly improved; thermal hyperalgesia (Hargreaves test), chronic administration [8]: significantly improved"
"Clc1ccc(-c2c3c4[nH]c5ccccc5c4cc[n+]3cn2-c2ccc(Br)cc2)cc1.[Cl-] [8adb, 2-(4-Bromophenyl)-1-(4-chlorophenyl)-2,11-dihydroimidazo[1′,5′:1,2]pyrido[3,4-b]indol-4-ium chloride]",> 10000,> 10000,1.44,20,20,< 31.6,550,–
